# Literature values, collected in patent US11110113B2, “Compositions and methods for treating depression” (Gentelon, Inc., priority 2016, dated 2021).
# Legend:
# [1] = system: Major Depressive Disorder; conditions: trial versus placebo
# [2] = system: depression
# [3] = system: cerebral tissue; conditions: six months, versus placebo; schizophrenia and Huntington's disease
# [4] = oral SAMe
# [5] = system: Major Depressive Disorder; conditions: double-blind studies; intravenous or intramuscular (parenteral)
compound,measurement,setting,value
"CC/C=C\C/C=C\C/C=C\C/C=C\C/C=C\C/C=C\CCC(=O)O [DHA, all-cis-4,7,10,13,16,19-docosahexaenoic acid]",efficacy in major depressive disorder / mood-disordered population,[1],negative result
Nc1nc2ncc(CNc3ccc(C(=O)N[C@@H](CCC(=O)O)C(=O)O)cc3)nc2c(=O)[nH]1 [folic acid],depression symptomatology,"[2]; longer term supplementation, patients with unipolar and bipolar depression",statistically significant improvements
Nc1nc2c(c(=O)[nH]1)N(C=O)C(CNc1ccc(C(=O)N[C@@H](CCC(=O)O)C(=O)O)cc1)CN2 (stereo partly shown) [folinic acid],depression scores,[2]; patients inadequately responsive to monotherapy with a serotonin reuptake inhibitor,significant reduction
CC/C=C\C/C=C\C/C=C\C/C=C\C/C=C\CCCC(=O)OCC [E-EPA],efficacy in major depressive disorder / mood-disordered population,[1],advantage over placebo
same,grey and white matter,[3],significant increase
"C[S+](CC[C@H](N)C(=O)[O-])C[C@H]1O[C@@H](n2cnc3c(N)ncnc32)[C@H](O)[C@@H]1O (stereo partly shown) [SAMe, S-Adenosyl methionine]",half-life,[4],about 100 minutes
same,efficacy in treatment of Major Depressive Disorder,[5],effective
